Test system: human umbilical vein endothelial cells (HUVEC) expressing GFP and normal human dermal fibroblasts (NHDF)
Experiment: Angiogenesis assay (vascular tube formation, HUVEC/NHDF co-culture)
Type: cell-based
Details: VEGF 4 ng/ml; 100 μM suramin positive control
Experimental: In the vascular tube formation assay, a co-culture system of human umbilical vein endothelial cells (HUVEC) expressing GFP and normal human dermal fibroblasts (NHDF) was used. For cell seeding on day 0, one cryogenic vial of NHDF cells was thawed and resuspended in 12 ml of complete seeding medium. Then, 100 μl of this solution was added per well of a 96-well plate. The cells were incubated at room temperature for 1 hour. Then, 1 cryogenic vial of HUVECs was thawed and resuspended in 12 ml of complete seeding medium. HUVEC (100 μL per well) were seeded into the same plate as NHDFs. The cells were incubated at room temperature for another hour. The plate was then examined in an IncuCyte ZOOM and scanned using the “FOIL” scan type. After 24 hours, the culture medium was replaced with 150 μl of growth medium.
Forty-eight hours after seeding, the cells were treated with VEGF at 4 ng/ml and the test compounds at eight concentrations.
Serial dilutions of the compounds were prepared using assay media containing VEGF up to the final concentrations in FIG. 3. Then, 150 μl of medium containing the vNARs were added. In untreated wells, media without VEGF were added. For wells without compound, media with VEGF was added. […]
The formation of vessel tubes by fluorescently-labeled HUVECs was measured using live-cell imaging, and the effects of the vNARs on this process were assessed.

With `Cc1ccc(C(=O)Nc2ccc(S(=O)(=O)O)c3cc(S(=O)(=O)O)cc(S(=O)(=O)O)c23)cc1NC(=O)c1cccc(NC(=O)Nc2cccc(C(=O)Nc3cc(C(=O)Nc4ccc(S(=O)(=O)O)c5cc(S(=O)(=O)O)cc(S(=O)(=O)O)c45)ccc3C)c2)c1` [suramin, reference compound] the “inhibition of VEGF-increased tube branching” value was “inhibited”.

From patent publication US11155612B2, “vNAR antibody which binds VEGF for use in dogs or cats” (CENTRO DE INVESTIGACIÓN CIENTÍFICA Y DE EDUCACIÓN SUPERIOR …, priority 2017, dated 2021)
